This passage reports IC50 results from patent US4673684A, “Amide derivatives and 5-lipoxygenase inhibitors containing the same as an active ingredient” (Terumo Corporation, priority 1984, dated 1987).

For this assay, the target named is T1, 5-lipoxygenase (Mus musculus, UniProt P48999).
T1 construct: The supernatant is used as a 5-lipogenase enzyme solution; endogenous in cells
T1 sequence (P48999 1-674): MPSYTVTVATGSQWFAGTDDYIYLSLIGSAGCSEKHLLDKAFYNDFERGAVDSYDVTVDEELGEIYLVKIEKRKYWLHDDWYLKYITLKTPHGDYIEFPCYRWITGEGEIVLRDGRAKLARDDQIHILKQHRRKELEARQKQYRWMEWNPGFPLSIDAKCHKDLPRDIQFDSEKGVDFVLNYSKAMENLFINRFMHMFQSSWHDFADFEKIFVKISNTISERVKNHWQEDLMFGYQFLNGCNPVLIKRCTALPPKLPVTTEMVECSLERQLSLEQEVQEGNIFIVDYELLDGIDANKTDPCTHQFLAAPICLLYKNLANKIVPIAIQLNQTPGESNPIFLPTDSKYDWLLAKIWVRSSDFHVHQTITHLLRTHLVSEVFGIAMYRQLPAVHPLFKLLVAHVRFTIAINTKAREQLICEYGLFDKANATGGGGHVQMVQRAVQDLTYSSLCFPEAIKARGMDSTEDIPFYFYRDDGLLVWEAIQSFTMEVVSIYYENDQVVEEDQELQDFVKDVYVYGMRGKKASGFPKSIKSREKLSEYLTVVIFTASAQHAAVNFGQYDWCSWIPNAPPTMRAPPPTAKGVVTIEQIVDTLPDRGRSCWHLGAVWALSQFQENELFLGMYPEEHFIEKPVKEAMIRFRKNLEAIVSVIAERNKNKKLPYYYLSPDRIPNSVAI
As to the kind of experiment: 5-Lipoxygenase-inhibiting Activity (decrease in 5-HETE and LTB4 formed from radiolabelled arachidonic acid, enzyme solution from mouse mastcytoma cells P-815). Format: biochemical. Here is the method: Mouse mastcytoma cells P-815 are diluted in a culture solution, containing 90% Eagle Basic Medium (manufactured by Gibco Laboratories) to 5×10^4 cells/ml. The diluted solution is cultivated with shaking in air at 37° C. for 48 hours. Then, the culture solution is cooled with ice and centrifuged to collect the cells. The cells are suspended in a phosphate buffer solution at pH 7.4 at a concentration of 2×10^7 cells/ml. The suspension is treated in a ultrasonic cell disintegrater and then centrifuged at 10,000 r.p.m. for 10 min. The supernatant is used as a 5-lipogenase enzyme solution. In test tubes are placed 20 μl of radiolabelled arachidonic acid ([…]), indomethacin (2×10^-8 mol) and an amide derivative to be tested, respectively. To each of the test tubes are added 0.45 ml of a phosphate buffer solution, 0.45 ml of the above-prepared suspension, 0.45 ml of the above-prepared enzyme solution and 0.1 ml of 8 mM CaCl2 (calcium chloride). The mixture is reacted at 37° C. for 5 min. After cooled with ice, 60 μl of 1N-HCl (hydrochloric acid is added to the reaction mixture, which is then extracted with 8 ml of ethyl acetate. The extract is concentrated, and the concentrate is developed by spotting on a silica gel thin layer plate (Merck 60F 254). Measurement of the inhibitory activity is made by collecting fractions corresponding to lipoxygenase products 5-HETE (5(s)-hydroxy-6,8,11,14-eicosatetraenic acid) and LTB4 (leucotriene B4) and determining the radioactivity by a liquid scintillation counter. The lipoxygenase inhibiting activity is determined by decrease in the amount of the above-mentioned 5-lipoxygenaseproducts. […] 50% inhibitory concentration or 30% inhibitory concentration as indicated in the table means the concentration of an amide derivative required for reducing the amount of the above-mentioned 5-lipoxygenase products (5-HETE and LTB4) to 50% or 30% of the amount when the amount of 5-HETE and LTB4 produced in the absenced of the amide derivative is 100%.

Where [1] appears, read: 5-HETE and LTB4 formation, mouse mastcytoma P-815 enzyme solution, 37° C., 5 min, pH 7.4, with indomethacin, read-out: 50% Inhibitory concentration IC50.

Read-outs that look alike come from different tables or passages of the source.

On to `O=C(/C=C/C=C/c1ccc(O)c(O)c1)NCCCCN1CCC(OC(c2ccccc2)c2ccccc2)CC1` [Example 129, 1-[4-[5-(3,4-dihydroxyphenyl)-2,4-pentadienoyl]aminobutyl]-4-benzhydroxypiperidine], for which, under setting [1], the IC50 was 20 nM. Still for that read-out and setting: for `COc1cc(/C=C/C=C/C(=O)NCCCCN2CCN(C(c3ccccc3)c3ccccc3)CC2)cc(OC)c1O` [Example 97, N-benzhydryl-N'-[4-[5-(3,5-dimethoxy-4-hydroxy)phenyl-2,4-pentadienoyl]aminobutyl]] the value was 40 nM. For the compound `COc1cc(/C=C/C(=O)N2CCN(CCOC(C)(c3ccccc3)c3ccc(Cl)cc3)CC2)cc(OC)c1O` (stereo not drawn) [Example 105, N-[3-(3,5-dimethoxy-4-hydroxyphenyl)-2-propenoyl]-N'-[2-[1-phenyl-1-(p-chlorophenyl)ethoxy]ethyl]piperazine], under setting [1], the IC50 came out at 10 nM. The same measure, in the same setting: in the case of `COc1cc(/C=C/C=C/C(=O)N2CCN(CCCCn3cnc4c3c(=O)n(C)c(=O)n4C)CC2)ccc1O` [Example 130] it was 1000 nM; in that of `O=C(/C=C/c1ccc(O)c(O)c1)NCCCCN1CCN(C(c2ccccc2)c2ccccc2)CC1` [Example 64, N-[4-[3-,4-(3,4-dihydroxyphenyl)-2-propenoyl]aminobutyl]N'-benzhydrylpiperazine], 30 nM; in that of `O=C(/C=C/c1ccc(O)c(O)c1)N1CCN(CCOC(c2ccccc2)c2ccccc2)CC1` [Example 66, N-[3-(3,4-dihydroxyphenyl)-2-propenoyl]-N'-(2-benzhydroxyethyl)], 30 nM.

Consider `COc1ccc(/C=C/C(=O)NCCCCN2CCN(C(c3ccccc3)c3ccccc3)CC2)cc1OC` [Example 74, N-[4-[3-(3,4-dimethoxyphenyl)-2-propenoyl]aminobutyl]-N'-benzhydrylpiperazine], for which, under setting [1], the IC50 was 8000 nM. As to `COc1cc(/C=C/C=C/C(=O)NCCCCN2CCN(C(c3ccccc3)c3ccc(Cl)cc3)CC2)ccc1O` (stereo not drawn) [Example 86], the IC50 under setting [1] worked out at 40 nM. Consider `O=C(/C=C/C=C/c1ccc(O)c(O)c1)N1CCN(C(c2ccccc2)c2ccccc2)CC1` [Example 26], for which the IC50 under setting [1] is 40 nM. Still for that read-out and setting: for `COc1cc(/C=C/C=C/C(=O)NCCn2cnc3c2c(=O)n(C)c(=O)n3C)ccc1O` [Example 88] the value was 4000 nM. For `COc1ccc(/C=C/C(=O)N2CCN(CCOC(c3ccccc3)c3ccccc3)CC2)cc1OC` [Example 76, N-[3-(3,4-dimethoxyphenyl) -2-propenoyl]-N'-(2-benzhydroxyethyl)piperazine], the IC50 is 20000 nM. For `O=C(/C=C/C=C/c1ccc(O)c(O)c1)NCCN1CCN(C(c2ccccc2)c2ccccc2)CC1` [Example 27, N-benzhydryl-N'-[2-{5-(3,4-dihydroxyphenyl)-2,4-pentadienoyl}aminoethyl]piperazine], the IC50 under setting [1] turned out to be 7 nM. On the same count and under the same terms, in the case of `Cn1c(=O)c2c(ncn2CCN2CCN(C(=O)/C=C/C=C/c3ccc(O)c(O)c3)CC2)n(C)c1=O` [Example 109] it was 2000 nM.

In the case of `COc1cc(/C=C/C=C/C(=O)N2CCN(CCn3cnc4c3c(=O)n(C)c(=O)n4C)CC2)cc(OC)c1O` [Example 114], the IC50 under setting [1] amounted to 2000 nM. On the same count and under the same terms, in the case of `O=C(/C=C/C=C/c1ccc(O)c(O)c1)NCCCCN1CCN(C(c2ccccc2)c2ccccc2)CC1` [Example 83, N-benzhydryl-N'-5-(3,4-dihydroxyphenyl)-2,4-pentadienoylaminobutylpiperazine] it was 40 nM; in that of `COc1cc(/C=C/C(=O)N2CCN(CCn3cnc4c3c(=O)n(C)c(=O)n4C)CC2)ccc1O` [Example 103, 7-[2-[4-[3(3-methoxy-4-hydroxyphenyl)-2-propenoyl]piperazin-1-yl]-ethyl]theophilline], 30000 nM. The same measure, in the same setting: in the case of `COc1cc(/C=C/C(=O)N2CCN(CCCn3cnc4c3c(=O)n(C)c(=O)n4C)CC2)ccc1O` [Example 123] it was 10000 nM.

Regarding `COc1cc(/C=C/C(=O)NCCN2CCN(C(c3ccccc3)c3ccc(Cl)cc3)CC2)cc(OC)c1O` (stereo not drawn) [Example 49], the IC50 under setting [1] is 40 nM. On the same count and under the same terms, in the case of `COc1cc(/C=C/C=C/C(=O)NCCN2CCN(C(c3ccccc3)c3ccccc3)CC2)cc(OC)c1O` [Example 53, N-[2-[5-(3,5-dimethoxy-4-hydroxyphenyl)-2,4-pentadienoyl]aminoethyl]-N'-benzhydrylpiperazine] it was 20 nM. Still for that read-out and setting: for `COc1cc(/C=C/C(=O)N2CCN(CCCn3cnc4c3c(=O)n(C)c(=O)n4C)CC2)cc(OC)c1OC` [Example 127, 7-[3-[4-[3-(3,4,5-trimethoxyphenyl)-2-propenoyl]piperazi-1-nyl]-1-propyl]theopylline] the value was 30000 nM. Consider `COc1cc(/C=C/C(=O)NCCCCN2CCC(OC(c3ccccc3)c3ccccc3)CC2)ccc1O` [Example 124, 1-[4-[3-(3-methoxy-4-hydroxyphenyl)-2-propenoyl]aminobutyl]-4-benzhydroxypiperidine], for which the IC50 under setting [1] stood at 200 nM. Take `COc1cc(/C=C/C=C/C(=O)N2CCN(CCn3cnc4c3c(=O)n(C)c(=O)n4C)CC2)ccc1O` [Example 112]: under setting [1], the IC50 was determined as 2000 nM. The same measure, in the same setting: in the case of `O=C(/C=C/C=C/c1ccc2c(c1)OCO2)NCCN1CCN(C(c2ccccc2)c2ccccc2)CC1` [Example 61, N-[2-[5-(3,4-methylenedioxyphenyl)-2,4-pentadienoyl]aminoethyl]-N'-benzhydrylpiperazine] it was 3000 nM. Still for that read-out and setting: in the case of `COc1cc(/C=C/C(=O)NCCN2CCC(OC(c3ccccc3)c3ccccc3)CC2)cc(OC)c1O` [Example 117, 1-[2-[3-(3,5-dimethoxy-4-hydroxyphenyl)-2-propenoyl]aminoethyl]-4-benzhydroxypiperidine] it was 20 nM; in that of `CC(OCCN1CCN(C(=O)/C=C/C=C/c2ccc(O)c(O)c2)CC1)(c1ccccc1)c1ccc(Cl)cc1` (stereo not drawn) [Example 107, N-[5-(3,4-dihydroxyphenyl)-2,4-pentadienoyl]-N-[2-[1-phenyl-1-(p-chlorophenyl)-ethoxy]ethyl]piperazine], 10 nM. On to `COc1ccc(/C=C/C=C/C(=O)NCCCN2CCN(C(c3ccccc3)c3ccccc3)CC2)cc1OC` [Example 47, N-[3-[5-(3,4-dimethoxyphenyl)-2,4-pentadienoyl]-aminopropyl]-N'-benzhydrylpiperazine], for which the IC50 under setting [1] was 4000 nM. Same read-out and setting: for `COc1cc(/C=C/C=C/C(=O)NCCN2CCN(C(c3ccccc3)c3ccccc3)CC2)cc(OC)c1OC` [Example 59, N-[2-[5-(3,4,5-trimethoxyphenyl)-2,4-pentadienoyl]aminoethyl]-N'-benzhydrylpiperazine] the value was 2000 nM; for `COc1cc(/C=C/C(=O)NCCN2CCN(C(c3ccccc3)c3ccccc3)CC2)cc(OC)c1OC` [Example 52, N-benzhydryl-N'-[3-(3',4',5'-trimethoxy)phenyl-2-propenoyl]aminoethylpiperazine], 10000 nM. On the same count and under the same terms, in the case of `COc1cc(/C=C/C=C/C(=O)NCc2c(CO)cnc(C)c2O)cc(OC)c1OC` [Example 60, 4-[5-(3,4,5-trimethoxyphenyl)-2,4-pentadienoyl]aminomethyl-3-hydroxy-5-hydroxymethyl-2-methylpyridine] it was 100000 nM. Same read-out and setting: for `COc1cc(/C=C/C=C/C(=O)NCCCN2CCN(C(c3ccccc3)c3ccccc3)CC2)cc(OC)c1O` [Example 55] the value was 30 nM. For `COc1cc(/C=C/C=C/C(=O)N2CCN(CCCCn3cnc4c3c(=O)n(C)c(=O)n4C)CC2)cc(OC)c1O` [Example 132], under setting [1], the IC50 was 1000 nM.

Turning to `COc1cc(/C=C/C(=O)NCCN2CCN(C(=O)c3ccccc3N)CC2)ccc1O` [Example 36, N-(o-aminobenzoyl)-N'-[2-[3-[3-methoxy-4-hydroxyphenyl)-2-propenoyl]aminoethyl]piperazine], the IC50 under setting [1] is 200000 nM.

Regarding `Cc1ccc(C(=O)OCc2cnc(C)c(O)c2CNC(=O)/C=C/C=C/c2ccc(O)c(O)c2)cc1` [Example 46], under setting [1], the IC50 is 80 nM.
